Test results from patent publication US20180077929A1, “METHODS AND SYSTEMS FOR TREATING MEDICAL DEVICES AND FLUIDS” (priority 2016, published 2018).
Several values for one entry are separate records, joined by “and”; a condition that tells them apart may be missing. Equal values may be shown once.

How the values were obtained:
[1] = Animal study: calcium stearate alone dosed intraperitoneally (NC-2); format: in vivo; conditions: NC-2: 0.2 g Calcium Stearate in 5.0 mL normal saline, intraperitoneal, female rats, observed 4 days
Protocol: An animal study was conducted with 30 female rats with weights ranging from 250-300 g and acclimated for 5 days. All rats were dosed with intraperitoneal injections using 18 gauge needles. The rats were broken into 6 groups. A negative control (NC-1) dosed 5 rats with 5 mL of normal saline solution. […] A positive control (PC-1) dosed 5 rats with 2.5 million EU in a 5 mL saline solution. A second positive control (PC-2) was conducted dosing 5 rats with 5 million endotoxin units in a 5 mL normal saline solution. Two experimental test groups were conducted.
The negative control samples also had no toxicity.

[2] = Suture testing in aqueous suspension of CaSt; format: biochemical
Protocol: Treatment of sutures in aqueous suspensions of CaSt was performed as follows: Suture used was VICRYL® (Polyglactin 910) suture made of a copolymer made from 90% glycolide and 10% L-lactide, Size 1, 27 inch pieces. Endotoxin sources used were sitting (or stagnant) Rain Water (SRW) and diluted with LRW to obtain a concentration of (3980 EU/mL). Endosafe LAL Reagent Water (LRW) was used, manufactured by Charles River Laboratories, Charleston S.C.
Eight strands of suture were placed in tubing with LPS (endotoxin) solution for 10 minutes at a time. The sutures were dried for 20 minutes and then placed in round bottom tubes. Suspensions of 5% by weight CaSt in LAL Reagent Water were prepared. (0.5 g CaSt in 10 mL LRW). One suture was placed in each tube and vortexed in this solution for approximately 10 seconds. The sutures were removed and allowed to dry for 20 minutes and then placed in round bottom tubes. This was done for 3 sutures. Three pieces of suture, serving as the control, were not submerged in any solutions and placed in test tubes. 3 mL of LAL reagent water was added to each test tube, vortexed vigorously for 1 minute, and then placed in a hot water bath at 37° C. for 1 hour. They were then removed, vortexed vigorously for 1 minute, diluted, and tested on the MCS system. The water that was mixed with the calcium stearate was also tested. Two sutures were submerged in LRW that was mixed with calcium stearate. The LRW was separated from the calcium stearate before two sutures were submerged. These were also tested for endotoxin on the MCS.

[3] = Effect of storage (dwell time) on efficacy of pre-mixed CaSt suspensions; format: biochemical; conditions: 15 minutes
Protocol: Efficacy of pre-mixed CaSt suspensions (sonicated and vortexed) was tested, comparing efficacy of immediately prepared suspensions with suspensions having shelf life or dwell time of 90 min, 5 days, and 1 month prior to contact with endotoxin containing solutions.
10 mL SRW was then introduced to the sonicated CaSt mixture. It was then vortexed for 5 seconds to fully incorporate the sonicated CaSt. The mixture was then tested after 15 minutes of interaction to measure the percent decrease of endotoxin.
10 mL SRW was then introduced to the vortexed CaSt mixture. It was then vortexed for 5 seconds to fully incorporate the sonicated CaSt. The mixture was then tested after 15 minutes of interaction to measure the percent decrease of endotoxin.
These mixtures were then tested on the Charles River MCS at a dilution of 1:2000 after 15 minutes of interaction.
Test samples were prepared as described above, sonicated and vortexed, but were subjected to shelf life or dwell time of 90 min, 5 days, and 1 month prior to contact with endotoxin containing solution (SRW). After dwell time exposure, similarly to the immediate mixing test above, 10 mL SRW was then introduced to the sonicated or vortexed CaSt mixture. It was then vortexed for 5 seconds to fully incorporate the sonicated CaSt. The mixture was then tested after 15 minutes of interaction to measure the percent decrease of endotoxin. These mixtures were then tested on the Charles River MCS at a dilution of 1:2000 after 15 minutes of interaction.
*The 1 month shelf life sample was only tested at 0.04 g CaSt and measured the percent removal after 15 minutes of interaction as well as 30 minutes after interaction.

[4] = Suture testing in Ethyl Acetate containing CaSt; format: biochemical; conditions: contaminated suture in Ethyl Acetate w/ 5% Calcium Stearate, 10 seconds; Ethyl Acetate alone 80.4 EU, no submersion 105.6 EU
Protocol: An absorbable VICRYL® (Polyglactin 910) suture (Size 1, Length: 27 in) made of a copolymer made from 90% glycolide and 10% L-lactide was exposed to a solution containing LPS (endotoxin) (9 Strands of Vicryl suture were immersed in tubing with endotoxin solution (SRW, Concentration: 3980 EU/mL) for 10 minutes at a time at ambient temperature. The sutures were air dried for 20 minutes in a vented chemical hood and then placed in round bottom and dried The suture was then immersed into Ethyl Acetate (EtAc) containing CaSt, vortexed briefly for 10 seconds, dried for 20 minutes in a vented chemical hood, and extracted in endotoxin free water at ambient temperature. The suture extracted in endotoxin free water (LRW) was then tested for LPS using the Kinetic Chromogenic Method for Endotoxin Quantitation, Charles River Laboratories, Charleston S.C.

[5] = 0.02 g CaSt, Sonicated, 5 Day dwell time
[6] = 0.02 g CaSt, Sonicated, 90 min dwell time
[7] = 0.02 g CaSt, Sonicated, Immediate Mixing
[8] = 0.02 g CaSt, Vortexed, 5 Day dwell time
[9] = 0.02 g CaSt, Vortexed, 90 min dwell time
[10] = 0.04 g CaSt, Sonicated, 1 Month dwell time
[11] = 0.04 g CaSt, Sonicated, 5 Days dwell time
[12] = 0.04 g CaSt, Sonicated, 90 min dwell time
[13] = 0.04 g CaSt, Sonicated, Immediate Mixing
[14] = 0.04 g CaSt, Vortexed, 5 Days dwell time
[15] = 0.04 g CaSt, Vortexed, 90 min dwell time
[16] = 0.04 g CaSt, Vortexed, Immediate Mixing

Calcium Stearate
Results (toxicity observed) [1]: No Toxicity
Endotoxin Detected ([2]; Water with 5% Calcium Stearate, solution tested after suture removal): <1.0 EU
Average Change in Endotoxin Level ([2]; sutures 4-6 in LAL Water w/5% Calcium Stearate vs. sutures not submerged): −96.1%
Average Endotoxin Detected ([2]; sutures 4-6 in LAL Water w/5% Calcium Stearate, untreated average 84 EU): 3.27 EU
EU After ([3]; 0.02 g CaSt in 10 mL LRW, Sonicated, Immediate Mixing with 10 mL SRW, 36,100 EU before): 8,960 EU and 10,240 EU
Average Percent Change [3, 5]: 76%
Percent Endotoxin Removed [3, 5]: 76%
EU After ([3]; 0.02 g CaSt, Sonicated, 5 Day dwell time, 37,800 EU before): 9,200 EU
Average Percent Change [3, 6]: 61%
Percent Endotoxin Removed [3, 6]: 58% and 64%
EU After ([3]; 0.02 g CaSt, Sonicated, 90 min dwell time, 36,100 EU before): 15,120 EU and 12,960 EU
Average Percent Change [3, 7]: 74%
Percent Endotoxin Removed [3, 7]: 75% and 72%
Average Percent Change [3, 8]: 64%
Percent Endotoxin Removed [3, 8]: 60% and 68%
EU After ([3]; 0.02 g CaSt, Vortexed, 5 Day dwell time, 37,800 EU before): 15,120 EU and 12,160 EU
Average Percent Change [3, 9]: 43%
Percent Endotoxin Removed [3, 9]: 38% and 47%
EU After ([3]; 0.02 g CaSt, Vortexed, 90 min dwell time, 36,100 EU before): 22,400 EU and 19,280 EU
Average Percent Change ([3]; 0.02 g CaSt, Vortexed, Immediate Mixing): 32%
EU After ([3]; 0.02 g CaSt, Vortexed, Immediate Mixing, 36,100 EU before): 29,200 EU and 20,480 EU
EU After ([3]; 0.04 g CaSt in 10 mL LRW, Sonicated, Immediate Mixing with 10 mL SRW, 36,100 EU before): 5,320 EU and 5,800 EU
Average Percent Change [3, 10]: 50%
Percent Endotoxin Removed [3, 10]: 49.2% and 50.6%
Average Percent Change [3, 11]: 85%
Percent Endotoxin Removed [3, 11]: 87% and 83%
Average Percent Change [3, 12]: 81%
Percent Endotoxin Removed [3, 12]: 83% and 78%
Average Percent Change [3, 13]: 85%
Percent Endotoxin Removed [3, 13]: 85% and 84%
EU After ([3]; 0.04 g CaSt, Sonicated, Mixing after 1 Month dwell time, 14,650 EU before): 7,440 EU and 7,240 EU
EU After ([3]; 0.04 g CaSt, Sonicated, Mixing after 5 Days dwell time, 37,800 EU before): 5,040 EU and 6,560 EU
EU After ([3]; 0.04 g CaSt, Sonicated, Mixing after 90 min dwell time, 36,100 EU before): 6,168 EU and 8,000 EU
Average Percent Change [3, 14]: 75%
Percent Endotoxin Removed [3, 14]: 76% and 74%
Average Percent Change [3, 15]: 54%
Percent Endotoxin Removed [3, 15]: 53% and 54%
Average Percent Change [3, 16]: 44%
Percent Endotoxin Removed [3, 16]: 45% and 43%
EU After ([3]; 0.04 g CaSt, Vortexed, Immediate Mixing, 36,100 EU before): 19,840 EU and 20,480 EU
EU After ([3]; 0.04 g CaSt, Vortexed, Mixing after 5 Days dwell time, 37,800 EU before): 9,080 EU and 9,760 EU
EU After ([3]; 0.04 g CaSt, Vortexed, Mixing after 90 min dwell time, 36,100 EU before): 17,120 EU and 16,460 EU
Endotoxin Detected [4]: 23.4 EU and 21.78 EU and 25.62 EU
